In US11384060B2, “Amide compounds and use thereof” (ALPHALA CO., LTD., priority 2017, dated 2022):
Read-outs that look alike come from different tables or passages of the source.

Columns and labels:
glucagon receptor (GCGR) = target: T1, glucagon receptor (GCGR) (Homo sapiens, UniProt P47871); assay: I125-glucagon binding assay (competition, GCGR membrane fractions)
T1 construct: expressed in transfected cells; host or cells: CHO-K1 cells overexpressing GCGR (membrane fractions)
Summary of the method: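 Membranes from CHO-K1 cells overexpressing GCGR, 7.5 μg/well in 50 mM Tris pH 7.4 with 0.5% BSA, were preincubated 5 min with serially diluted compounds, then given 0.0625 nM final I^125-glucagon for 30 min at 25° C. Bound label was filtered on PEI-coated GF/B and counted; IC50 by non-linear regression.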

[1] = target: T2, glucagon receptor (GCGR) overexpressed CHO-K1 cells or human primary hepatocytes (Homo sapiens, UniProt P47871); assay: Glucagon cAMP inhibition assay (Cisbio cAMP Dynamic 2 HTRF); assay type: cell-based
T2 construct: expressed in transfected cells; host or cells: GCGR overexpressed CHO-K1 cells or human primary hepatocytes (endogenous receptor)
T2 sequence (P47871 26-477): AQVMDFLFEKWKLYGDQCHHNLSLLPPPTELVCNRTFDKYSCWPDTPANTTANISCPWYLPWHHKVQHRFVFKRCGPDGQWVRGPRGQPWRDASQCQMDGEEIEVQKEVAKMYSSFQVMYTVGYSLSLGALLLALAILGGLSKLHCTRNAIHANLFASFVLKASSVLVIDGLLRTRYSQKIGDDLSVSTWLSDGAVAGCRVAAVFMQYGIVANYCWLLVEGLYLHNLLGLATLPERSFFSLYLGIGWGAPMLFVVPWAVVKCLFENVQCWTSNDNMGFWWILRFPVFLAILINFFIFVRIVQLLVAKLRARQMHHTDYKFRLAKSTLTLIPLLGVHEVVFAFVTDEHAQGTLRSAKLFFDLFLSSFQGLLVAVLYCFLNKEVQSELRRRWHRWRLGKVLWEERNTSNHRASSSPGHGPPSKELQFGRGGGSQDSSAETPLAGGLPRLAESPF
Summary of the method: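 GCGR-overexpressing CHO-K1 cells or human primary hepatocytes in HBSS with 0.1% BSA and 800 nM IBMX, pre-incubated 30 min with serially diluted compounds (1% DMSO final), then stimulated 30 min at room temperature with glucagon at its EC50. cAMP measured by HTRF after 60 min lysis; IC50 by non-linear regression.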

[2] = competition with I125-glucagon 0.0625 nM, membrane fractions of GCGR overexpressed CHO-K1 cells
[3] = inhibition of glucagon (EC50 concentration) induced cAMP production

T1 sequence (P47871 26-477): as above

Structure (SMILES) | IC50 (glucagon receptor (GCGR); [2]) [nM] | IC50 cAMP [1, 3] [nM] | IC50 (glucagon receptor (GCGR)) [nM] | IC50 cAMP [1] [nM]
CC[C@H](C)[C@@H](COc1ccc(-c2nnc(C(C)(C)C)o2)cc1)Nc1ccc(C(=O)NCCC(=O)O)cc1 [Compound 1-45, 3-(4-(((2S,3S)-1-(4-(5-(tert-butyl)-1,3,4-oxadiazol-2-yl)phenoxy)-3-methylpentan-2-yl)amino)benzamido)propanoic Acid] | 1520 | 11981 |  | 
CCC(C)[C@@H](Cc1noc(-c2ccc(C(C)(C)C)cc2)n1)Nc1ccc(C(=O)NCCC(=O)O)cc1 (stereo partly drawn) [Compound 21-2, 3-(4-(((2R)-1-(5-(4-(tert-butyl)phenyl)-1,2,4-oxadiazol-3-yl)-3-methylpentan-2-yl)amino)benzamido)propanoic Acid] | 637 | 1242 |  | 
CC(C)[C@@H](COc1ccc(-c2ccc(C(F)(F)F)cc2F)c(F)c1)Nc1ccc(C(=O)NCCC(=O)O)cc1 [Compound 8-1, (S)-3-(4-((1-((2,2′-difluoro-4′-(trifluoromethyl)-[1,1′-biphenyl]-4-yl)oxy)-3-methylbutan-2-yl)amino)benzamido)propanoic Acid] | 112 | 61.9 |  | 
CC(C)COC[C@@H](Cc1ccc(-c2ccc(Cl)cc2Cl)cc1)Nc1ccc(C(=O)NCCC(=O)O)cc1 [Compound 19-20, (R)-3-(4-((1-(2′,4′-dichloro-[1,1′-biphenyl]-4-yl)-3-isobutoxypropan-2-yl)amino)benzamido)propanoic Acid] |  |  | 1150 | 822.4
CC(C)[C@@H](COc1ccc(-c2ccc(N(C)C)cc2Cl)cc1)Nc1ccc(C(=O)NCCC(=O)O)cc1 [Compound 1-37, (S)-3-(4-((1-((2′-chloro-4′-(dimethylamino)-[1,1′-biphenyl]-4-yl)oxy)-3-methylbutan-2-yl)amino)benzamido)propanoic Acid] | 372 | 376 |  | 
CCCC[C@@H](COc1nnc(-c2ccc(Cl)cc2Cl)o1)Nc1ccc(C(=O)NCCC(=O)O)cc1 [Compound 22-6, (S)-3-(4-((1-((5-(2,4-dichlorophenyl)-1,3,4-oxadiazol-2-yl)oxy)hexan-2-yl)amino)benzamido)propanoic Acid] |  |  | > 30000 | >30000
CC(C)[C@@H](COc1ccc(-c2ccc(C(F)(F)F)cc2Cl)cc1)Nc1ccc(C(=O)NCCC(=O)O)cc1 [Compound 1-22, (S)-3-(4-((1-((2′-chloro-4′-(trifluoromethyl)-[1,1′-biphenyl]-4-yl)oxy)-3-methylbutan-2-yl)amino)benzamido)propanoic Acid] | 70 | 14.2 |  | 
CCCC[C@@H](COc1ccc(-c2ccc(C(F)(F)F)cc2Cl)c(C)n1)Nc1ccc(C(=O)NCCC(=O)O)cc1 [Compound 18-2, (S)-3-(4-((1-((5-(2-chloro-4-(trifluoromethyl)phenyl)-6-methylpyridin-2-yl)oxy)hexan-2-yl)amino)benzamido)propanoic Acid] |  |  | 42 | 49
CCCC[C@@H](COc1ccc(-c2ccc(Cl)cc2Cl)cc1)Nc1ccc(C(=O)NCc2nnn[nH]2)cc1 [Compound 1-18, (S)—N-((1H-tetrazol-5-yl)methyl)-4-((1-((2′,4′-dichloro-[1,1′-biphenyl]-4-yl)oxy)hexan-2-yl)amino)benzamide] | 31 | 1564 |  | 
CC[C@H](C)[C@@H](COc1ccc(-c2cc3ccccc3o2)c(OC)c1)Nc1ccc(C(=O)NCCC(=O)O)cc1 [Compound 13-1, 3-(4-(((2S,3S)-1-(4-(benzofuran-2-yl)-3-methoxyphenoxy)-3-methylpentan-2-yl)amino)benzamido)propanoic Acid] | 46 | 157 |  | 
CC(C)(C)c1ccc(NC(=O)[C@H](Cc2cccc3ccccc23)Nc2ccc(C(=O)NCCC(=O)O)cc2)cc1 [Compound 23-18, (S)-3-(4-((1-((4-(tert-butyl)phenyl)amino)-3-(naphthalen-1-yl)-1-oxopropan-2-yl)amino)benzamido)propanoic Acid] |  |  | 1870 | 4700
CC[C@H](C)[C@@H](COc1cc(Cl)c(-c2ccc(C(F)(F)F)cc2Cl)cc1Cl)Nc1ccc(C(=O)NCCC(=O)O)cc1 [Compound 3-20, 3-(4-(((2S,3S)-3-methyl-1-((2,2′,5-trichloro-4′-(trifluoromethyl)-[1,1′-biphenyl]-4-yl)oxy)pentan-2-yl)amino)benzamido)propanoic Acid] | 73 | 44 |  | 
CCCC[C@@H](COc1ccc(-c2cc3ccccc3o2)cc1)Nc1ccc(C(=O)NCCC(=O)O)cc1 [Compound 1-10, (S)-3-(4-((1-(4-(benzofuran-2-yl)phenoxy)hexan-2-yl)amino)benzamido) propanoic Acid] | 122 | 629.8 |  | 
CC[C@H](C)[C@H](Nc1ccc(C(=O)NCCC(=O)O)cc1)C(=O)Nc1ccc(-c2cc3ccccc3o2)cc1 [Compound 23-31, 3-(4-(((2S,3S)-1-((4-(benzofuran-2-yl)phenyl)amino)-3-methyl-1-oxopentan-2-yl)amino)benzamido)propanoic Acid] |  |  | 294 | 4145
CC(C)[C@@H](COc1ccc(-c2cc3ccccc3o2)nc1)Nc1ccc(C(=O)NCCC(=O)O)cn1 [Compound 11-2, (S)-3-(6-((1-((6-(benzofuran-2)pyridin-3-yl)oxy)-3-methylbutan-2-yl)amino)nicotinamido)propanoic Acid] | 926 | 14398 |  | 
CC[C@H](C)[C@@H](COc1ccc(-c2ccc(OC(F)(F)F)cc2)cc1)Nc1ccc(C(=O)NCCC(=O)O)cc1 [Compound 1-6, 3-(4-(((2S,3S)-3-methyl-1-((4′-(trifluoromethoxy)-[1,1′-biphenyl]-4-yl)oxy)pentan-2-yl)amino)benzamido)propanoic Acid] | 228 | 1078 |  | 
O=C(O)CCNC(=O)c1ccc(N[C@H](Cc2ccc(-c3cc4ccccc4o3)cc2)C(=O)Nc2ccc(C(F)(F)F)cc2)cc1 [Compound 24-20, (R)-3-(4-((3-(4-(benzofuran-2-yl)phenyl)-1-oxo-1-((4-(trifluoromethyl)phenyl)amino)propan-2-yl)amino)benzamido)propanoic Acid] |  |  | 193 | 1947
CC(C)C[C@@H](COc1ccc(-c2ccc(C(F)(F)F)cc2Cl)nc1)Nc1ccc(C(=O)NCCC(=O)O)cc1 [Compound 10-18, (S)-3-(4-((1-((6-(2-chloro-4-(trifluoromethyl)phenyl)pyridin-3-yl)oxy)-4-methylpentan-2-yl)amino)benzamido)propanoic Acid] | 234 | 880 |  | 
CCOC[C@@H](COc1ccc(-c2cc3ccccc3o2)cc1)Nc1ccc(C(=O)NCCC(=O)O)cc1 [Compound 6-3, (S)-3-(4-((1-(4-(benzofuran-2-yl)phenoxy)-3-ethoxypropan-2-yl)amino)benzamido)propanoic Acid] | 479 | 3859 |  | 
CC(C)[C@H](COc1ccc(-c2ccc(C(F)(F)F)cc2Cl)cc1)Nc1ccc(C(=O)NCCC(=O)O)cc1 [Compound 1-35] | 145 | 209.3 |  | 
CC(C)[C@@H](COc1ccc(-c2ccc(C(F)(F)F)cc2F)cc1)Nc1ccc(C(=O)NCCC(=O)O)cc1 [Compound 1-25] | 44 | 90.4 |  | 
